This assay concerns SYK dependent basophil degranulation (CD63 surface expression on basophils in whole blood). The experiment in a line: CD63-assay (cellular assay for SYK-inhibition) in whole blood. In kind it is cell-based. On the procedure: In this assay, IgE raised against dinitrophenol (DNP) is incubated in whole blood where it binds to the FcεR1 on basophils. […] CD63 normally resides on the intracellular granule membrane within basophils, which upon degranulation, is then expressed on the surface where it can be detected by flow cytometry. Surface expression of CD63 correlates extremely well with the release of histamine from basophils. The CD63 assay has previously been validated as a clinical target engagement biomarker in the Fostamatinib SYK program (Braselmann et al, J. Pharm. Exp. Therap. 319:998-1008, 2006). Heparinized whole blood is mixed gently (vortex mixer) and […] per test aliquoted into a 96 well plate. Anti-DNP (1 mg/ml) is diluted 1:100 with PBS/0.1% HSA to 10 μg/ml (final concentration: 1 μg/mL). Pre-dilute DNP/BSA (5 mg/ml) to a concentration of 60 ng/ml with washing solution. Compounds: […] Reagents are provided from the Basotest® kit. Incubate 10 μl of 10 μg/ml anti DNP and 10 μl of compound with 100 μl whole blood in a 37° C. pre-warmed water bath. After 30 minutes, 20 μl of STIMULATION BUFFER is added to the whole blood samples and vortexed gently. Incubate the samples for 10 min at 37° C. in a water bath. 100 μl of DNP/BSA is added per test to the whole blood. Add 100 μl of the WASHING SOLUTION to a further test tube as a negative control. Add 100 μl of DNP/BSA (final 30 ng/ml) in the compound tubes. All tubes are mixed once more. The samples are incubated for 20 min at 37° C. in a water bath. Stop degranulation by incubating the samples on ice for 5 min. Add 20 μl of STAINING REAGENT to each tube. Vortex and incubate the tubes for 20 min in an ice bath, covered to prevent exposure to light. The whole blood samples are lysed and fixed with 2 ml of pre-warmed (room temperature) 1×LYSING SOLUTION. Vortex and incubate for 10 min at room temperature. Spin down cells (5 min, 250×g, 4° C.). Discard the supernatant. Add 3 ml of WASHING SOLUTION to the tubes. Centrifuge the tubes (5 min, 250×g, 4° C.). Aspirate the supernatant. Add 200 μl WASHING SOLUTION to the cell pellet, vortex. Incubate the tubes in a covered ice bath until analysis. Cells are analysed by flow cytometry using the blue-green excitation light (488 nm argon-ion laser). Acquire data by using fluorescence triggering in the FL2 channel (PE) to gate on basophilic granulocytes expressing high amounts of IgE. This live gating reduces the amount of data and saves memory capacity. Acquire at least 500 basophils per sample. For data evaluation and calculation, the measurement of the negative control (unstimulated blood) was set as 100% control and the measurement of the positive control (DNP/anti-DNP stimulated blood) was set as 0% control. Based on these values the % value for the measurement of each substance concentration was calculated, a concentration-effect curve fitted and an EC50 value calculated using GraphPad Prism version 6.01 for Windows. The EC50 value was calculated using a nonlinear fitting (log(inhibitor) vs. response—variable slope). Normally, the % control values calculated are between 0% and 100% values but may also occur outside these limits in individual cases based on variability or compound characteristics.

Where [1] appears, read: whole blood, DNP/anti-DNP stimulated basophils, read-out: CD63 assay EC50-value (chapter 5.2).

Where two headings read alike, the source gives them in different places. Some results are limits rather than exact numbers.

The term EC50 denotes the concentration that produces a half-maximal response.

As to `Cc1cnn2cc(-c3cnn(C(C)(C)C)c3)nc(O[C@H](C)[C@H]3CNC(=O)C3)c12` [example 5.20 on page 506 of WO15017610, reference compound], the EC50 reads like this: (read-out: EC50 in CD63-assay) < 150 nM; under setting [1], 77 nM.

As for `Cc1cnn2cc(-c3cnn(C(C)(C)C)c3)cc(O[C@H](C)[C@H]3CNC(=O)C3)c12` [example 6.09 on page 559 of WO15017610, reference compound], the EC50 runs as follows: (read-out: EC50 in CD63-assay) < 150 nM; under setting [1], 20 nM.

For `Cc1cc2c(O[C@H](C)[C@H]3CNC(=O)C3)cc(-c3cnn(C(C)(C)C)c3)cn2n1` [example 6.60 on page 587 of WO15017610, reference compound], the EC50 worked out at 483 nM (read-out: EC50 in CD63-assay) and 483 nM under setting [1].

Source of the values: patent US10155751B2, “Pyrazolyl-substituted heteroaryls and their use as medicaments” (Boehringer Ingelheim International GmbH, priority 2015, dated 2018).
